According to patent publication US8563730B2, “Pyrazole and fused pyrazole glucokinase activators” (Takeda San Diego, Inc., priority 2008, dated 2013):
Where two headings read alike, the source gives them in different places.

Molecular target: T1, GK (glucokinase, residues 12-465) (Homo sapiens, UniProt P35557)
T1 construct: I.D. No. 1 corresponds to residues 12-465 of glucokinase; made in house; host or cells: DH10b-T1r E. coli
T1 sequence (P35557 with tags, fused parts or gaps isoform P35557-2): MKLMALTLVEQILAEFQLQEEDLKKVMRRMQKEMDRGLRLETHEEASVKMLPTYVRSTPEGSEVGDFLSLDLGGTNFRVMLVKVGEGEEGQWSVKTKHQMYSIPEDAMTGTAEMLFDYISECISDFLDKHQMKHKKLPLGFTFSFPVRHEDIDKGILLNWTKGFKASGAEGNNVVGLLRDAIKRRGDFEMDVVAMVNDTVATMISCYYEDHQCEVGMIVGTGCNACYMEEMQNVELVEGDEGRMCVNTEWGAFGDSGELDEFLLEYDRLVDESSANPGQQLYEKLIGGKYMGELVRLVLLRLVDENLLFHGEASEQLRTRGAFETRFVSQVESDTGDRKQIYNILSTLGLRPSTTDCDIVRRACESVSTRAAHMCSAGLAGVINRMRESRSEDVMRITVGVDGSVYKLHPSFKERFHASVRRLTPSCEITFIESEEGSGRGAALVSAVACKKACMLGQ
Test: enzymatic glucokinase activity assay (ATP consumption, KinaseGlo luminescence)
Assay type: biochemical
Conditions: 5 μM ATP, 5 mM Glucose, reported as bins; for EC50: Kact = concentration that displays 50% of the maximal increase in GK activity, 60 min, room temperature, read-out: pKact
Procedure, shortened: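 E. coli-expressed recombinant GK purified by two anion-exchange steps. Reaction in 25 mM Hepes pH 7.2, 10 mM MgCl2, 1 mM DTT, 5 μM ATP, 5 mM glucose, 2% DMSO, 60 min at room temperature. ATP consumption quantified by KinaseGlo luminescence; pKact and % ACTmax derived by non-linear curve fitting.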

[1] = calculated maximal gain in GK enzyme activity at a saturating concentration of the compound, read-out: % ACTmax
[2] = read-out: % ACTmax, calculated maximal gain in GK enzyme activity at a saturating concentration of the compound

| EC50 [µM] | Emax [1] [%] | SMILES | Emax [2] [%] |
| --- | --- | --- | --- |
| 1.58 to 3.16 | ≥ 111 | Cc1cc(NC(=O)C(CC2CCOCC2)n2ncc3c(S(=O)(=O)C4CC4)cccc32)nn1C (centres unmarked) [Compound 134, 2-(4-(cyclopropylsulfonyl)-1H-indazol-1-yl)-N-(1,5-dimethyl-1H-pyrazol-3-yl)-3-(tetrahydro-2H-pyran-4-yl)propanamide] |  |
| ≥ 15.8 | 106 to 110 | COc1ccc2c(cnn2[C@H](CC2CCOCC2)C(=O)Nc2ccn(C)n2)c1S(=O)(=O)C1CC1 [Compound 110, (R)-2-(4-(cyclopropylsulfonyl)-5-methoxy-1H-indazol-1-yl)-N-(1-methyl-1H-pyrazol-3-yl)-3-(tetrahydro-2H-pyran-4-yl)propanamide] |  |
| 0.398 to 1.26 | 90 to 100 | O=C1CC[C@H](C[C@H](C(=O)Nc2cnccn2)n2ncc3c(S(=O)(=O)C4CC4)cccc32)C1 [Compound 75, (R)-2-(4-(cyclopropylsulfonyl)-1H-indazol-1-yl)-3-((R)-3-oxocyclopentyl)-N-(pyrazin-2-yl)propanamide] |  |
| 1.58 to 3.16 | ≥ 111 | N#Cc1cnc(NC(=O)C(CC2CCOCC2)n2ncc3c(S(=O)(=O)C4CC4)cccc32)s1 (centres unmarked) [Compound 125, N-(5-cyanothiazol-2-yl)-2-(4-(cyclopropylsulfonyl)-1H-indazol-1-yl)-3-(tetrahydro-2H-pyran-4-yl)propanamide] |  |
| ≤ 0.316 | ≤ 90 | O=C(Nc1ncc(F)s1)C(CC1CCOCC1)n1ncc2c(S(=O)(=O)C3CC3)cc(OC(F)F)cc21 (centres unmarked) [Compound 143, 2-(4-(cyclopropylsulfonyl)-6-(difluoromethoxy)-1H-indazol-1-yl)-N-(5-fluorothiazol-2-yl)-3-(tetrahydro-2H-pyran-4-yl)propanamide] |  |
| ≤ 0.316 | ≥ 111 | O=C(Nc1ncc(F)s1)C(CC1CCOCC1)n1ncc2c(S(=O)(=O)C3CC3)c(F)ccc21 (centres unmarked) [Compound 149, 2-(4-(cyclopropylsulfonyl)-5-fluoro-1H-indazol-1-yl)-N-(5-fluorothiazol-2-yl)-3-(tetrahydro-2H-pyran-4-yl)propanamide] |  |

More lines, now with the values behind:

| SMILES | EC50 [µM] | Emax [1] [%] | Emax [2] [%] |
| --- | --- | --- | --- |
| O=C(Nc1ncc(Cl)s1)C(CC1CCOCC1)n1cc2c(S(=O)(=O)C3CC3)cccc2n1 (centres unmarked) [Compound 70, N-(5-chlorothiazol-2-yl)-2-(4-(cyclopropylsulfonyl)-2H-indazol-2-yl)-3-(tetrahydro-2H-pyran-4-yl)propanamide] | 1.58 to 3.16 | 101 to 105 |  |
| CC(C)(C)S(=O)(=O)c1cnn(C(CC2CCOCC2)C(=O)Nc2ncc(F)s2)c1 (centres unmarked) [Compound 49, 2-(4-(tert-butylsulfonyl)-1H-pyrazol-1-yl)-N-(5-fluorothiazol-2-yl)-3-(tetrahydro-2H-pyran-4-yl)propanamide] | 3.98 to 12.6 | 90 to 100 |  |
| O=C1CC[C@H](C[C@@H](C(=O)Nc2cnccn2)n2ncc3c(S(=O)(=O)C4CC4)cccc32)C1 [Compound 74, (S)-2-(4-(cyclopropylsulfonyl)-1H-indazol-1-yl)-3-((R)-3-oxocyclopentyl)-N-(pyrazin-2-yl)propanamide] | 1.58 to 3.16 | 90 to 100 |  |
| O=C(Nc1ncc(F)s1)C(CC1CCOCC1)n1cc(S(=O)(=O)c2ccc(Cl)cc2)cn1 (centres unmarked) [Compound 29, 2-(4-(4-chlorophenylsulfonyl)-1H-pyrazol-1-yl)-N-(5-fluorothiazol-2-yl)-3-(tetrahydro-2H-pyran-4-yl)propanamide] | 0.398 to 1.26 | ≥ 111 |  |
| O=C(Nc1ncc(F)s1)[C@@H](CC1CCOCC1)n1cc(S(=O)(=O)C2CC2)cn1 [Compound 31, (R)-2-(4-(cyclopropylsulfonyl)-1H-pyrazol-1-yl)-N-(5-fluorothiazol-2-yl)-3-(tetrahydro-2H-pyran-4-yl)propanamide] | ≥ 15.8 | ≤ 90 |  |
| O=C(Nc1ncc(F)s1)[C@@H](CC1CCOCC1)n1cc(S(=O)(=O)C2CCCC2)cn1 [Compound 43, (R)-2-(4-(cyclopentylsulfonyl)-1H-pyrazol-1-yl)-N-(5-fluorothiazol-2-yl)-3-(tetrahydro-2H-pyran-4-yl)propanamide] | ≥ 15.8 | ≤ 90 |  |
| Nc1cc(S(=O)(=O)C2CC2)c2cnn(C(CC3CCOCC3)C(=O)Nc3ncc(F)s3)c2n1 (centres unmarked) [Compound 16, 2-(6-amino-4-(cyclopropylsulfonyl)-1H-pyrazolo[3,4-b]pyridin-1-yl)-N-(5-fluorothiazol-2-yl)-3-(tetrahydro-2H-pyran-4-yl)propanamide] | ≤ 0.316 |  | 106 to 110 |
| COc1ccc2nc(NC(=O)[C@@H](CC3CCOCC3)n3ccc(S(=O)(=O)C4CC4)n3)sc2n1 [Compound 3, (R)-2-(3-(cyclopropylsulfonyl)-1H-pyrazol-1-yl)-N-(5-methoxythiazolo[5,4-b]pyridin-2-yl)-3-(tetrahydro-2H-pyran-4-yl)propanamide] | ≥ 15.8 | ≤ 90 |  |
| COc1ccc2nc(NC(=O)C(CC3CCOCC3)n3cc(S(=O)(=O)c4ccc(Cl)cc4)cn3)sc2n1 (centres unmarked) [Compound 30, 2-(4-(4-chlorophenylsulfonyl)-1H-pyrazol-1-yl)-N-(5-methoxythiazolo[5,4-b]pyridin-2-yl)-3-(tetrahydro-2H-pyran-4-yl)propanamide] | 3.98 to 12.6 | ≤ 90 |  |
| Cn1ccc(NC(=O)[C@@H](CC2CCOCC2)n2ncc3c(S(=O)(=O)C4CC4)cccc32)n1 [Compound 118] | ≥ 15.8 |  | ≤ 90 |
